Assay results published in ChEMBL document CHEMBL3808386, “Targeting Mitogen-Activated Protein Kinase-Activated Protein Kinase 2 (MAPKAPK2, MK2): Medicinal Chemistry Efforts To Lead Small Molecule Inhibitors to Clinical Trials” (J Med Chem, 2016).
Each block holds one molecule with its values, some of them ahead of it.

Legend:
Bile salt export pump = Bile salt export pump (Homo sapiens, UniProt O95342); experiment: Inhibition of human BSEP expressed in recombinant baculovirus infected insect Sf9 cell membrane vesicles assessed as [3H]-taurocholate transport preincubated for 5 mins followed by ATP or AMP addition measured after 5 mins by scintillation counting method
Sequence of Bile salt export pump (O95342 whole entry): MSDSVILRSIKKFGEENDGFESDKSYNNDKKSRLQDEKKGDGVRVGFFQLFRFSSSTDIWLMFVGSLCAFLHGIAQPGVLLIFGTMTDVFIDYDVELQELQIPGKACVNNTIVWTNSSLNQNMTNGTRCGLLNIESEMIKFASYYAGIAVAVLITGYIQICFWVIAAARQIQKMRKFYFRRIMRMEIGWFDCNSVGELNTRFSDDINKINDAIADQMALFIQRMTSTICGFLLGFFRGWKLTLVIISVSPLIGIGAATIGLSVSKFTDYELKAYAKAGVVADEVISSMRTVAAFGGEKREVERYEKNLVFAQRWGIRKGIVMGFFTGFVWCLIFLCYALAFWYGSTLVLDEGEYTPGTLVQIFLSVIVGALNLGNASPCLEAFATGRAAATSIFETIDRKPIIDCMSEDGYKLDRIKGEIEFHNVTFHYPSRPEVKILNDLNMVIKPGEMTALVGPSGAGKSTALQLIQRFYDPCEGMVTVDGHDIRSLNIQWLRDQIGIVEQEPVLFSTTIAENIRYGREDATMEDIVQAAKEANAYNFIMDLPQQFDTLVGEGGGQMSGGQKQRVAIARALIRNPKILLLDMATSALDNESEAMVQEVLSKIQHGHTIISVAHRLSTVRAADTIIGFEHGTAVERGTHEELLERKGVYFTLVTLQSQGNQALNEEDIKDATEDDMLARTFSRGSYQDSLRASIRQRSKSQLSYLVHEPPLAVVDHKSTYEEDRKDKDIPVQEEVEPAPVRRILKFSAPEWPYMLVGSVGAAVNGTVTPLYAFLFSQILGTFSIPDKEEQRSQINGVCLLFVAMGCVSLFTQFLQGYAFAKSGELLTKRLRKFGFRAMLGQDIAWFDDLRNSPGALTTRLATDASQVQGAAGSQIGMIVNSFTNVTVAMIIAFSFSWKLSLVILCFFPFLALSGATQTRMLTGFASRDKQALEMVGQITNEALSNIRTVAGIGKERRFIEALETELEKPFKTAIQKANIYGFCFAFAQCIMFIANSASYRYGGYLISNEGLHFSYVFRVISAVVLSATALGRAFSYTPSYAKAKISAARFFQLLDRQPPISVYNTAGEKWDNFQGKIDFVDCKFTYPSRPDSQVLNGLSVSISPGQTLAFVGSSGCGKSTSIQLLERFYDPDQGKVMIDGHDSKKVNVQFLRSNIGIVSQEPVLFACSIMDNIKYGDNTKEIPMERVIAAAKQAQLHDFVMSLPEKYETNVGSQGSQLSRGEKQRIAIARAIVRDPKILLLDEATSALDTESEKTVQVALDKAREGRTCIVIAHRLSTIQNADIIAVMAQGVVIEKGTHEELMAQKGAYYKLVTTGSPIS

[1] = Inhibition of MRP2 in MDCK cells after 15 mins by Calcein-AM assay; format: cell-based, Canis lupus familiaris
[2] = Inhibition of P-gp in MDCK-MDR1 cells after 30 mins by Calcein-AM assay; format: cell-based, Canis lupus familiaris
[3] = target: T1, MAP kinase-activated protein kinase 2 (Homo sapiens, UniProt P49137); experiment: Inhibition of recombinant human N-terminal GST-tagged MK2 (46 to 400 residues) expressed in Escherichia coli assessed as reduction in recombinant human HSP27 phosphorylation at 200 uM after 30 mins by Western blot analysis relative to control
Target sequence in this assay (P49137 whole entry, looked up, the tested form may be a part): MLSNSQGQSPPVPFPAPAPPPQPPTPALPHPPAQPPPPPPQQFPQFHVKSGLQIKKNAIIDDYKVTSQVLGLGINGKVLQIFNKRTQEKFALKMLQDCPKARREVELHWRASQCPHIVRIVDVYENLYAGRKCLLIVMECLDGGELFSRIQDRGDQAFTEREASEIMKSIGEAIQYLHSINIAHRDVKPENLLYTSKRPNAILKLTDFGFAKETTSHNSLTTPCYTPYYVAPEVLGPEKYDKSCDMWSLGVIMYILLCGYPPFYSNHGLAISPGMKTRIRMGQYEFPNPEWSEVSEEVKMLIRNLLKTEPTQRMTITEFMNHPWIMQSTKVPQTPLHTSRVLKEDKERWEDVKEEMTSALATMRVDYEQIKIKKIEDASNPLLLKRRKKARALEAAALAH

[4] = target: Mitogen-activated protein kinase 14 (Homo sapiens) (UniProt Q16539); experiment: Inhibition of full length recombinant human N-terminal GST-tagged p38alpha MAP kinase expressed in Escherichia coli assessed as residual activity at 30 uM in presence of radiolabelled ATP by radiometric assay relative to control
Sequence of Mitogen-activated protein kinase 14 (Homo sapiens) (Q16539 whole entry, the tested form may be a part): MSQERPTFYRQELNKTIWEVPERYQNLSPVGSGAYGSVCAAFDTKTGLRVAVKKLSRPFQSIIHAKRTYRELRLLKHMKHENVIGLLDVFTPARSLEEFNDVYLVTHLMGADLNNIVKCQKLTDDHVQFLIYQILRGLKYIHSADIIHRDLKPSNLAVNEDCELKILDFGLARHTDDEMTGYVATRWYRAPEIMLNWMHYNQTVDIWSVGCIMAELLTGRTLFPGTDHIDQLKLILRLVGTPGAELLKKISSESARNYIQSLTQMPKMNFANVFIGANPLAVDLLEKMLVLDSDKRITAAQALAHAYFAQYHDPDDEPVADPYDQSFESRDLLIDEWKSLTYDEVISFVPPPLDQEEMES

[5] = target: T2, Interleukin-1 receptor-associated kinase 4 (Homo sapiens) (UniProt Q9NWZ3); experiment: Inhibition of full length recombinant human N-terminal His6-tagged IRAK4 expressed in baculovirus infected Sf21 cells assessed as residual activity at 30 uM in presence of radiolabelled ATP by radiometric assay relative to control
T2 sequence (whole entry): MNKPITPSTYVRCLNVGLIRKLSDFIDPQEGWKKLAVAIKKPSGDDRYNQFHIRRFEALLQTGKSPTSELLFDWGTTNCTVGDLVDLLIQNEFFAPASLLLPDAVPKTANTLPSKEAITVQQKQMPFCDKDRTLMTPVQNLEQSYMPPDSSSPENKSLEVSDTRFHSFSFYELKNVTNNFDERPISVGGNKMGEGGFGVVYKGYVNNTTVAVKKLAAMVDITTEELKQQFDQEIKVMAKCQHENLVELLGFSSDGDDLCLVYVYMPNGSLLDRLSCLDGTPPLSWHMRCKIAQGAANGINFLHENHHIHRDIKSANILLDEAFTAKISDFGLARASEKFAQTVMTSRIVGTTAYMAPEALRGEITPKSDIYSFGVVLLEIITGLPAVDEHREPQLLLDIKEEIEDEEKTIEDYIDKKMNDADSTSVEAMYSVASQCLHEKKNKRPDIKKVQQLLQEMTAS

Fibroblast [6] = experiment: Inhibition of TGF-beta1-induced CTGF expression in serum-starved human keloid fibroblasts at 10 uM preincubated for 2 hrs followed TGF-beta1 addition measured after 24 hrs by Western blot analysis relative to control; format: functional
[7] = target: T1, MAP kinase-activated protein kinase 2; experiment: Inhibition of recombinant human N-terminal GST-tagged MK2 (46 to 400 residues) expressed in Escherichia coli in presence of radiolabelled ATP by radiometric assay
Target sequence in this assay (P49137 whole entry, the tested form may be a part): as the sequence (P49137 whole entry, looked up, the tested form may be a part) above

[8] = target: Rho-associated protein kinase 1 (Homo sapiens) (UniProt Q13464); experiment: Inhibition of recombinant human N-terminal His6-tagged ROCK1 (17 to 535 residues) expressed in baculovirus infected Sf21 cells assessed as residual activity at 30 uM in presence of radiolabelled ATP by radiometric assay relative to control
[9] = target: RAC-beta serine/threonine-protein kinase (Homo sapiens) (UniProt P31751); experiment: Inhibition of recombinant human N-terminal His6-tagged PKBbeta (120 to 481 residues) expressed in baculovirus infected Sf21 cells assessed as residual activity at 30 uM in presence of radiolabelled ATP by radiometric assay relative to control
Sequence of RAC-beta serine/threonine-protein kinase (Homo sapiens) (P31751 whole entry, the tested form may be a part): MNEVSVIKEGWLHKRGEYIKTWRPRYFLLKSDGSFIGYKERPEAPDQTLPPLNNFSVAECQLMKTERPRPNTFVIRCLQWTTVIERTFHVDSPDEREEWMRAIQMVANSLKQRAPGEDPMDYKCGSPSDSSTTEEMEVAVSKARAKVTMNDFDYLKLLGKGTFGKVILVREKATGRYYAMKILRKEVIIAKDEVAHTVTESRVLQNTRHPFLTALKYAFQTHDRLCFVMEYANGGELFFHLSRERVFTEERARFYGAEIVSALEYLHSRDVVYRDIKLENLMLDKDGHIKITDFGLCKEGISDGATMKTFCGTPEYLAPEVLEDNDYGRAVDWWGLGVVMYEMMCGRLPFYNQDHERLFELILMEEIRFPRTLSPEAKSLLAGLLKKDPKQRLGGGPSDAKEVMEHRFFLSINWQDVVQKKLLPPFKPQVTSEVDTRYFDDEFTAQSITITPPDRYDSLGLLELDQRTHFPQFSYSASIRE

[10] = target: Protein kinase C delta type (Homo sapiens) (UniProt Q05655); experiment: Inhibition of recombinant human N-terminal His6-tagged amino acids 2-end of PKCdelta expressed in Sf21 cells assessed as residual activity at 30 uM in presence of radiolabelled ATP by radiometric assay relative to control
[11] = target: Myosin light chain kinase, smooth muscle (Homo sapiens) (UniProt Q15746); experiment: Inhibition of recombinant human N-terminal His6-tagged MLCK (1425 to 1771 residues) expressed in baculovirus infected Sf21 cells assessed as residual activity at 30 uM in presence of radiolabelled ATP by radiometric assay relative to control
Sequence of Myosin light chain kinase, smooth muscle (Homo sapiens) (Q15746 whole entry, the tested form may be a part): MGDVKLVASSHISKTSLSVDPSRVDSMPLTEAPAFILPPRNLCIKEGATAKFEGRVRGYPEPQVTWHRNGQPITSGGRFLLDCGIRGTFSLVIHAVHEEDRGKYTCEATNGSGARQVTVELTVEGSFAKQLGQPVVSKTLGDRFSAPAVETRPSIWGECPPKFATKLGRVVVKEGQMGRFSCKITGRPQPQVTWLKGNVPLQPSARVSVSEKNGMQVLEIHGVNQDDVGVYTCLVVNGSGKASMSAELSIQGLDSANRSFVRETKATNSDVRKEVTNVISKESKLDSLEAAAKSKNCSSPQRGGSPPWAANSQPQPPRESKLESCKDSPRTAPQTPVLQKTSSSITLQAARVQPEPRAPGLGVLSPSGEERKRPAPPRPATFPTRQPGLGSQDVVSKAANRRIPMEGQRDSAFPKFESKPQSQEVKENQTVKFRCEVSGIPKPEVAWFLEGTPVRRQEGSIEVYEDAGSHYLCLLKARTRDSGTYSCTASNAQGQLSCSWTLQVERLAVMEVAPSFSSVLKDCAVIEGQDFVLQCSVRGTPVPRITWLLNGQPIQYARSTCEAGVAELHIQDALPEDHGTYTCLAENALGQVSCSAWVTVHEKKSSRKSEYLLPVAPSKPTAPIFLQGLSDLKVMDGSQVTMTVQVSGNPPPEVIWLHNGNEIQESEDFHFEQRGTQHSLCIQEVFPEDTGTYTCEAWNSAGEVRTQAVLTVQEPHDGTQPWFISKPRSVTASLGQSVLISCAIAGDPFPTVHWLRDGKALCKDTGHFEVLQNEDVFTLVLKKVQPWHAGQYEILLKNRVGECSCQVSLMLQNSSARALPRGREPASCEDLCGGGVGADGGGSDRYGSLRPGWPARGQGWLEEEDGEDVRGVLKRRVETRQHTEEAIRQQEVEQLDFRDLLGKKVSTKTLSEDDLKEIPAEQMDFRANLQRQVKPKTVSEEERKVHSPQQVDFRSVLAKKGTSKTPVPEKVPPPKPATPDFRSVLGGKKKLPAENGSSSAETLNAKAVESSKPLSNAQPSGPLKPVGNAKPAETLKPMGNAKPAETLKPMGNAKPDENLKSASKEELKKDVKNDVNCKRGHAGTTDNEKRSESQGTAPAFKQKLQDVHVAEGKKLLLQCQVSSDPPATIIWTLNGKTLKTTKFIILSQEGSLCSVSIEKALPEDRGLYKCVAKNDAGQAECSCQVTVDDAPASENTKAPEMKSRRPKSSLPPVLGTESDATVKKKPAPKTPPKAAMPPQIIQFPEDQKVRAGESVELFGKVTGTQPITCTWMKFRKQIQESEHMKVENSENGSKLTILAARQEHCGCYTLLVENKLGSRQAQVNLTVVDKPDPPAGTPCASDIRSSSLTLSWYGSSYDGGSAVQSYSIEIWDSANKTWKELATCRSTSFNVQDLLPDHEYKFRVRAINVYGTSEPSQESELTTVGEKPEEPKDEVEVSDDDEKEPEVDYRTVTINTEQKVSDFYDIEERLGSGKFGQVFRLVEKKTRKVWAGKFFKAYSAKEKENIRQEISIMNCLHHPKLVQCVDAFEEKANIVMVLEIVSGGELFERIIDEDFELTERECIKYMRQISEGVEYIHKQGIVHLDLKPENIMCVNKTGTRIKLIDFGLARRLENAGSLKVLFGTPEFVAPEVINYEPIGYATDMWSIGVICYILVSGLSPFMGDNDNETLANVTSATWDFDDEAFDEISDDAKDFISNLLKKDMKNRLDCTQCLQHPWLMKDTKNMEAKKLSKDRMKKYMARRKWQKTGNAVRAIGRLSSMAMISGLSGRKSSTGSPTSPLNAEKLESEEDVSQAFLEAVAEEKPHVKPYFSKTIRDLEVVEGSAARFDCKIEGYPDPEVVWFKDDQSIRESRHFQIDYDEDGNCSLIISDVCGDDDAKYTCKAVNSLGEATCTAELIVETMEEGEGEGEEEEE

Fibroblast [12] = experiment: Inhibition of TGF-beta1-induced collagen type 1 expression in serum-starved human keloid fibroblasts at 10 uM preincubated for 2 hrs followed TGF-beta1 addition measured after 24 hrs by Western blot analysis relative to control; format: functional
Canis familiaris [13] = experiment: Hepatotoxicity in beagle dog assessed as increase in serum bile acids at 750 mg/kg, po qd administered as single dose through gavage by LC-MS/MS analysis relative to control; format: toxicity, organism-based, Canis lupus familiaris; conditions: in vivo
U-937 = experiment: Inhibition of LPS-induced TNFalpha production in human U937 cells preincubated for 1 hr followed by LPS addition measured after 4 hrs by electro-chemiluminescence method; format: functional, cell-based
[14] = target: T1, MAP kinase-activated protein kinase 2; experiment: Inhibition of MK2 in human U937 cells assessed as reduction in LPS-stimulated HSP27 phosphorylation at Ser82 preincubated for 1 hr followed by LPS addition measured after 30 mins by Western blot analysis; format: cell-based, U-937
Target sequence in this assay (P49137 whole entry, the tested form may be a part): as the sequence (P49137 whole entry, looked up, the tested form may be a part) above

Rattus norvegicus [15] = experiment: Anti-inflammatory activity in po dosed Lewis rat model of LPS-induced acute endotoxemia inflammation assessed as inhibition of LPS-induced TNFalpha production administered through gavage pretreated for 4 hrs followed by LPS challenge measured after 90 mins by ELISA relative to control; format: functional
[16] = Tmax in Sprague-Dawley rat plasma at 3 mg/kg, po; format: ADME, organism-based
Canis familiaris [17] = experiment: Hepatotoxicity in beagle dog assessed as increase in total bilirubin at 750 mg/kg, po qd administered as single dose through gavage by LC-MS/MS analysis relative to control; format: toxicity, organism-based, Canis lupus familiaris; conditions: in vivo
[18] = Terminal half life in Sprague-Dawley rat plasma at 3 mg/kg, po; format: ADME, organism-based; conditions: read-out: beta t1/2 (converted)
Rattus norvegicus [19] = experiment: Anti-inflammatory activity in Lewis rat model of Streptococcal cell wall-induced arthritis assessed as reduction in chronic hind paw swelling up to 100 mg/kg, po bid administered through gavage for 10 to 21 days measured on day 21 by displacement plethysmometric method relative to control; format: functional
[20] = target: Rho-associated protein kinase 1 (Homo sapiens) (UniProt Q13464); experiment: Inhibition of recombinant human N-terminal His6-tagged ROCK1 (17 to 535 residues) expressed in baculovirus infected Sf21 cells assessed as residual activity at 300 uM in presence of radiolabelled ATP by radiometric assay relative to control
[21] = target: T2, Interleukin-1 receptor-associated kinase 4 (Homo sapiens); experiment: Inhibition of full length recombinant human N-terminal His6-tagged IRAK4 expressed in baculovirus infected Sf21 cells assessed as residual activity at 300 uM in presence of radiolabelled ATP by radiometric assay relative to control
[22] = target: Myosin light chain kinase, smooth muscle (Homo sapiens) (UniProt Q15746); experiment: Inhibition of recombinant human N-terminal His6-tagged MLCK (1425 to 1771 residues) expressed in baculovirus infected Sf21 cells assessed as residual activity at 300 uM in presence of radiolabelled ATP by radiometric assay relative to control
[23] = target: RAC-beta serine/threonine-protein kinase (Homo sapiens) (UniProt P31751); experiment: Inhibition of recombinant human N-terminal His6-tagged PKBbeta (120 to 481 residues) expressed in baculovirus infected Sf21 cells assessed as residual activity at 300 uM in presence of radiolabelled ATP by radiometric assay relative to control
[24] = target: Mitogen-activated protein kinase 14 (Homo sapiens) (UniProt Q16539); experiment: Inhibition of full length recombinant human N-terminal GST-tagged p38alpha MAP kinase expressed in Escherichia coli assessed as residual activity at 300 uM in presence of radiolabelled ATP by radiometric assay relative to control
[25] = target: Protein kinase C delta type (Homo sapiens) (UniProt Q05655); experiment: Inhibition of recombinant human N-terminal His6-tagged amino acids 2-end of PKCdelta expressed in Sf21 cells assessed as residual activity at 300 uM in presence of radiolabelled ATP by radiometric assay relative to control

Molecule: CC[C@H](C)[C@H](NC(=O)[C@H](CCCNC(=N)N)NC(=O)[C@H](CCCNC(=N)N)NC(=O)[C@H](CC(C)C)NC(=O)[C@H](Cc1c[nH]c2ccccc12)NC(=O)[C@H](C)NC(=O)[C@H](CCCCN)NC(=O)[C@@H](NC(=O)[C@H](CCCNC(=N)N)NC(=O)[C@H](CCCNC(=N)N)NC(=O)[C@H](CC(C)C)NC(=O)[C@@H](N)Cc1c[nH]c2ccccc12)[C@@H](C)CC)C(=O)N[C@@H](CCCCN)C(=O)N[C@@H](C)C(=O)N[C@@H](CC(C)C)C(=O)N[C@@H](CC(N)=O)C(=O)N[C@@H](CCCNC(=N)N)C(=O)N[C@@H](CCC(N)=O)C(=O)N[C@@H](CC(C)C)C(=O)NCC(=O)N[C@H](C(=O)N[C@@H](C)C(=O)N[C@@H](C)C(=O)O)C(C)C
Activity [4]: 61%
Activity [5]: 12%
inhibition at 10 µM (Fibroblast [6]): 68%
IC50 [7]: 0.74 µM
inhibition [3]: 80%
Activity [8]: 0%
Activity [9]: 18%
Activity [10]: 11%
Activity [11]: 4%
inhibition at 10 µM (Fibroblast [12]): 76%

Molecule: Cc1ccc(-c2ccc3c(ccc4sc5c(c43)NC[C@@H](C)NC5=O)n2)cn1
Activity (Canis familiaris [13]): <= 25000%
IC50 (Bile salt export pump): 7 µM
IC50 (U-937): 0.15 µM
IC50 [14]: 0.201 µM
inhibition (INH) (Rattus norvegicus [15]): >90%
Tmax [16]: 0.167 h
Activity (Canis familiaris [17]): <= 25000%
IC50 [1]: 7 µM
IC50 [2]: 7 µM
half-life [18]: 9 h
inhibition (INH) (Rattus norvegicus [19]): 80%

More lines, main results first:

IC50 [1]: 7 µM
IC50 [2]: 7 µM
Molecule: COCCOCc1cccc(-c2ccc3c(ccc4sc5c(c43)NC[C@@H](C)NC5=O)n2)c1
IC50 (Bile salt export pump): 7 µM

inhibition [3]: 64%
Molecule: H-KKKALNRQLGVAA-OH

IC50 [7]: 5.8 µM
Activity [20]: 95%
Activity [21]: 68%
Activity [22]: 66%
Activity [23]: 96%
Activity [24]: 100%
Activity [25]: 105%
Molecule: H-YARAAARQARAKALNRQLGVAA-OH
